# Source: article PMC1977984 (British Journal of Cancer, 1992)
# Where two headings read alike, the source gives them in different places. Starred links: 1 amine or outer side, 2 acyl side, 3 side chain; linkers in the order of their positions; H or OH if unused. Positions of bridges follow the written chain, without caps; N, C: chain ends. Non-standard residues stand in square brackets, D forms with d. Residues, ends and D or L forms follow the SMILES beside them. Chains are numbered I, II in the order given. Actinocin(9to1) = Cc1c2oc3c(C)ccc(C(=O)[*:1])c3nc-2c(C(=O)[*:2])c(N)c1=O; NMeV = CN[C@H](C(=O)O)C(C)C; Sar = CNCC(=O)O
# What was measured:
# [1] = test system: drug resistant variant of the Ridgway osteogenic sarcoma; parameters: method as in Merry et al., 1991; conditions: in vivo model; ref Merry et al., 1991; cited from earlier work
# MCF-7 wt cell line = assay: cells
# From the text: (§1) Br. J. Cancer (1992), 66, 833-839 ? […] Clinical effects and in vitro assessment in p-glycoprotein expressing cell lines N.S.A. Stuart', P. Philip', A.L. Harris', K. Tonkin', S. Houlbrook2, J. Kirk2, E.A. Lien3 & J. Carmichael' 'ICRF Clinical Oncology Unit, Churchill Hospital, Oxford OX3 7LJ; 2MRC Radiobiology Unit, Chilton, Didcot, Oxon; 3Department of Pharmacology and Toxicology, University of Bergen, Bergen, Norway. […] Cytotoxic drug resistance frequently affects a wide range of cytotoxic agents. It is commonly inherent, although it may also be acquired after initial response to cytotoxic drugs. Cell lines exposed in vitro to one cytotoxic drug may also become resistant to a range of structurally and functionally diverse agents. This multidrug resistant (MDR) phenotype is associ- ated with the presence of a 170 kd membrane glycoprotein, the P-glycoprotein (Pgp) (Juliano et al., 1976; Kartner et al., 1983; Riordan et al., 1985) which acts as an energy depen- dent efflux pump (Skovsgaard, 1978). […] Unfor- tunately many cause unacceptable toxicity at levels below those needed to modulate resistance and have therefore not been useful clinically (Ozols et al., 1987). Some encouraging results have however been reported in lymphoid malignan- cies. […] It is widely used in the treatment of breast cancer at doses of 20-40mgday-' and at such doses produces serum levels around 0.5 JiM (Adam et al., 1980; Fabian et al., 1980; Lien et al., 1989). […] Etoposide (VP16-213, Vepesid) is an epipodophyllotoxin derived cytotoxic drug which interferes with the action of the nuclear enzyme topoisomerase II producing lethal single and double stranded DNA breaks (Chen et al., 1984). It has activity in a number of solid tumours and resistance to it is part of the typical MDR phenotype (Endicott et al., 1989). […] The study therefore included patients with a range of relapsed and chemoresistant tumours. […] Patients had ECOG performance scores of 2 or better, had normal renal and hepatic function and had normal peripheral blood counts. […] Correspondence: N.S. Stuart. Received 13 March 1992; and in revised form 8 July 1992. 'PI Macmillan Press Ltd., 1992 Br. J. Cancer (1992), 66, 833-839 834 N.S.A. STUART et al. No formal compliance check was conducted but patients were asked specifically whether they had difficulties taking the correct number of tablets. Oral etoposide was given at a dose of 300mgday-' (150mg two times day-') for the first course. Patients who remained myelosuppressed on day 21 had the dose of etoposide reduced to 200 mg day-' for subse- quent courses. In those who had no significant myelosuppres- sion the dose of etoposide was increased to 400 mg day-'. […] Blood samples were centrifuged and the serum removed and stored at -20?C prior to measurement. […] The methods used have been published previously (Lien et al., 1989; 1987). […] The drugs were detected by being converted to fluorophors by subjecting the effluent of the column to ultra-violet light while passing through a quartz tube. The identity of the analyses was confirmed by liquid chromatography/mass spec- trometry using an on-line mass spectrometer connected to the analytical column (Lien et al., 1988). Serum levels in different patient populations were compared using the Mann-Whitney U-test. Cells and culture conditions Three pairs of cell lines were assessed. Each comprised a wild-type parental cell line and a P-glycoprotein expressing daughter line. The wild-type MCF-7 cell line was derived from a human breast cancer (Soule et al., 1973) while the CHO-KI cell line was derived from Chinese hamster ovaries (CHO).
# MCF-7 adrr cell line [2] = assay: cells
# From the text: as §1
# S1 cell line (SW-1573) = assay: cells; conditions: for Enhancement: S1, IC50 etoposide alone divided by IC50 with MNTC tamoxifen
# From the text: as §1
# human BRO melanoma cells = test system: human BRO melanoma cells; parameters: method as in Lincke et al., 1990; conditions: parental BRO cell line; ref Lincke et al., 1990; read-out: IC50 for etoposide; cited from earlier work
# S1/1.1 cell line = conditions: for Enhancement: S1/1.1, IC50 etoposide alone divided by IC50 with MNTC tamoxifen
# From the text: as §1
# [3] = From the text: as §1
# CHO-KI adrr cell line [4] = conditions: for Enhancement: CHO-KI adrr, IC50 etoposide alone divided by IC50 with MNTC tamoxifen
# From the text: as §1
# [5] = cited from earlier work
# [6] = test system: Chinese hamster lung (DC3F/ADX) and breast cancer (MCF-7 adrr) cell lines; parameters: method as in Politi et al., 1990; conditions: multidrug resistant mutants; ref Politi et al., 1990; cited from earlier work
# [7] = test system: multidrug resistance in vitro; parameters: method as in earlier work; conditions: ref Chatterjee et al., 1990b; Foster et al., 1988; Ramu et al., 1984; cited from earlier work
# CHO-KI cell line [8] = test system: CHO-KI cell line; parameters: method as in Chatterjee et al., 1990b; conditions: parental CHO-KI line; ref Chatterjee et al., 1990b; cited from earlier work
# CHO-KI adrr cell line [9] = test system: CHO-KI adrr cell line; parameters: method as in Chatterjee et al., 1990b; conditions: dox resistant CHO-KI adrr line; ref Chatterjee et al., 1990b; cited from earlier work
# MCF-7 adrr cell line [10] = test system: MCF-7 adrr cell line; parameters: method as in Foster et al., 1988; conditions: ref Foster et al., 1988; cited from earlier work
# CHO-KI cell line [11] = conditions: IC50 etoposide alone divided by IC50 with MNTC tamoxifen
# From the text: as §1
# [12] = test system: P388/ADR murine leukaemia line; parameters: method as in Ramu et al., 1984; conditions: ref Ramu et al., 1984; cited from earlier work
# [13] = Homo sapiens, MCF7, 96 h, read-out: IC50 etoposide
compound,measurement,setting,value
CC[C@]1(O)C[C@H]2CN(CCc3c([nH]c4ccccc34)[C@@](C(=O)OC)(c3cc4c(cc3OC)N(C=O)[C@H]3[C@@](O)(C(=O)OC)[C@H](OC(C)=O)[C@]5(CC)C=CCN6CC[C@]43[C@@H]65)C2)C1 [vincristine],Resistance of the drug resistant variant,[1],3.5 fold
"Cc1c2oc3c(C)ccc(C(=O)N[C@@H]4C(=O)N[C@H](C(C)C)C(=O)N5CCC[C@H]5C(=O)N(C)CC(=O)N(C)[C@@H](C(C)C)C(=O)O[C@@H]4C)c3nc-2c(C(=O)N[C@@H]2C(=O)N[C@H](C(C)C)C(=O)N3CCC[C@H]3C(=O)N(C)CC(=O)N(C)[C@@H](C(C)C)C(=O)O[C@@H]2C)c(N)c1=O [actinomycin- D, actinomycin-D] (I: T[dV]P[Sar][NMeV] / II: T[dV]P[Sar][NMeV]; ester I:1-I:C, II:1-II:C; linker I:N-II:N via Actinocin(9to1))",Resistance of the drug resistant variant,[1],1.5 fold
COc1cc([C@@H]2c3cc4c(cc3[C@@H](O[C@@H]3O[C@@H]5CO[C@@H](C)O[C@H]5[C@H](O)[C@H]3O)[C@H]3COC(=O)[C@H]23)OCO4)cc(OC)c1O [etoposide],Resistance of the drug resistant variant,[1],5 fold
same,IC50,MCF-7 wt cell line; [13],950 nM
same,IC50,MCF-7 adrr cell line [2]; [13],60000 nM
same,Resistance to etoposide in comparison to the MCF-7 wild type cell line,MCF-7 adrr cell line [2]; MCF-7 adrr versus MCF-7 wt,60 fold
same,IC50,"S1 cell line (SW-1573); Homo sapiens, SW1573, 96 h, read-out: IC50 etoposide",3000 nM
same,IC50,human BRO melanoma cells,16 nM
same,More sensitive than the parental line,"S1/1.1 cell line; S1/1.1 versus S1, P<0.01",2 fold
same,Thrombocytopenia,"[3]; human, in vivo, po",No significant thrombocytopenia
same,More resistant than its parental line,CHO-KI adrr cell line [4]; CHO-KI adrr versus CHO-KI,5 fold
CC/C(=C(\c1ccccc1)c1ccc(OCCN)cc1)c1ccccc1 [didesmethyltamoxifen],Levels lower than those of the parent compound,[5]; in vivo,60-85%
COc1ccc(CCN(C)CCCC(C#N)(c2ccc(OC)c(OC)c2)C(C)C)cc1OC (stereo not drawn) [verapamil],Effect on etoposide resistance,[6],3-4 fold
same,Enhancement (reversal of resistance to vincristine),[6],11-125 fold
CC/C(=C(\c1ccccc1)c1ccc(OCCN(C)C)cc1)c1ccccc1 [tamoxifen],Levels sufficient to modulate multidrug resistance in vitro,[7],3-10 JAM
same,Enhancement of dox cytotoxicity,CHO-KI cell line [8],4.8 fold
same,Enhancement of dox cytotoxicity,CHO-KI adrr cell line [9],16 fold
same,Enhancement,"MCF-7 wt cell line; MCF-7 wt, IC50 etoposide alone divided by IC50 with MNTC tamoxifen",1.2
same,Enhancement,"MCF-7 adrr cell line [2]; MCF-7 adrr, IC50 etoposide alone divided by IC50 with MNTC tamoxifen",0.7
same,Enhancement,S1 cell line (SW-1573),0.9
same,Enhancement,S1 cell line (SW-1573); listed as Tamoxifen,no significant effect
same,Reversal of adriamycin and vinblastine resistance,MCF-7 adrr cell line [10],partial reversal
same,Enhancement,S1/1.1 cell line,0.9
same,Enhancement,S1/1.1 cell line; listed as Tamoxifen,no significant effect
same,Enhancement,CHO-KI cell line [11],1.0
same,Enhancement,CHO-KI cell line [11]; listed as Tamoxifen,no significant effect
same,Neurological symptoms: Severe/v. severe (number of patients),"[3]; tamoxifen 480 mg day-1, total 10 patients",0
same,Neurological symptoms: Severe/v. severe (number of patients),"[3]; tamoxifen 720 mg day-1, total 16 patients",1 (6%)
same,Enhancement,CHO-KI adrr cell line [4],0.85
same,Enhancement,CHO-KI adrr cell line [4]; listed as Tamoxifen,no significant effect
same,Serum levels,"[5]; after 9 days on 260 mg of tamoxifen twice a day, ref Trump et al., 1991",6.1 µM
same,Serum levels,"[5]; continuing tamoxifen 480 mg day-1 indefinitely, ref Stuart et al., 1991",around 4 microM
same,Steady state serum levels,"[5]; standard dose tamoxifen 20-40 mg day-1, after 4 weeks, ref Adam et al., 1980, Fabian et al., 1980, Lien et al., 1989",0.25 to 1.0 µM
same,"Serum levels, plateau","[5]; tamoxifen 160 mg three times a day, after 10 days, ref Stuart et al., 1991",around 4 microM
same,Serum levels,"[5]; tamoxifen doses of 20-40 mg day-1 in breast cancer, ref Adam et al., 1980, Fabian et al., Lien et al., 1989",around 0.5 microM
same,Reversal of adriamycin resistance,[12],partially reversed the resistance
